Patent US8481732B2 (Incyte Corporation, priority 2009, dated 2013)

The molecules below were run against T1, histamine H4 receptor (Homo sapiens, UniProt Q9H3N8) (assay: H4 Membrane Binding Assay (3H-Histamine displacement)). Details: membranes of recombinant HEK293SFM cells, 10 nM 3H-Histamine, 1.5 hr at room temperature.
T1 construct: expressed in transfected cells; host or cells: HEK293SFM cells (membrane preparation)
Experimental: Recombinant HEK293SFM cells expressing human H1, H2, H3, H4 or mouse H4 were harvested (Packard Filtermate Harvester) in ice-cold Tris-HCl, (50 mM, pH 7.5, Sigma) with protease inhibitors (Roche) and homogenized with a Polytron homogenizer. The homogenate was centrifuged for 5 minutes at 1000 g to remove nuclei and unbroken cells. The supernatant was centrifuged at 50000 g for 30 minutes, and the resulting pellet was re-suspended in ice-cold Tris-HCl (50 mM, pH 7.5). […] Nonspecific binding was determined by inclusion of 1000× unlabeled ligands. The bound radioactivity was separated by filtration through polyethyleneimine-treated GF/B filters (Perkin Elmer). The filters were washed eight times with ice-cold Tris-HCl (50 mM, pH 7.5), and radioactivity retained on the filters was measured by liquid scintillation counting. The binding data were evaluated with Prism.

T1 sequence (Q9H3N8 whole entry): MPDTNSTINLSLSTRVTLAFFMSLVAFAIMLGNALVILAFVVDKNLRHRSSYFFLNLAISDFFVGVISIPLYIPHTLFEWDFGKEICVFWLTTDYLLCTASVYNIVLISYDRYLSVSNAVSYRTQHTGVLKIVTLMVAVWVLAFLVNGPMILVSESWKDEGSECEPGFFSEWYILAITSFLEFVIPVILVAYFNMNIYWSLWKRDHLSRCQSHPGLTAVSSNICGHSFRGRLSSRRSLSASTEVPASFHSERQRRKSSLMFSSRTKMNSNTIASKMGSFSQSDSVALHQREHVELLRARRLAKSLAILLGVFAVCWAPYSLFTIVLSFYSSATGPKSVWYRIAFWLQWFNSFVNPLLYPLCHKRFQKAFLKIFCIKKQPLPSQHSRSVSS

| Structure (SMILES) | IC50 [nM] |
| --- | --- |
| CN1CCN(c2cc(-c3ccc4c(c3)CN(c3ccc(C#N)cn3)CC4)nc(N)n2)CC1 [Example 16, 6-{7-[2-Amino-6-(4-methylpiperazin-1-yl)pyrimidin-4-yl]-3,4-dihydroisoquinolin-2(1H)-yl}nicotinonitrile] | 48 |
| CC(C)Oc1ccc(C[C@H](NC(=O)c2ccc3c(N4CCN(C)CC4)nc(N)nc3c2)C(=O)N(C)C)cc1 [Example 136, (S)-2-amino-N-(1-(dimethylamino)-3-(4-isopropoxyphenyl)-1-oxopropan-2-yl)-4-(4-methylpiperazin-1-yl)quinazoline-7-carboxamide] | 59 |
| CC(C)Oc1ccc(C[C@@H](C#N)NC(=O)c2ccc3c(N4CCN(C)CC4)nc(N)nc3c2)cc1 [Example 137] | 42 |
| CN1CCN(c2nc(N)nc3cc(C(=O)N4CCc5c(cccc5OCc5ccc(C#N)cc5)C4)ccc23)CC1 [Example 210, 4-((2-(2-Amino-4-(4-methylpiperazin-1-yl)quinazoline-7-carbonyl)-1,2,3,4-tetrahydroisoquinolin-5-yloxy)methyl)benzonitrile] | 41 |
| COC(=O)[C@H](Cc1ccc(OC(=O)NC(C)C)cc1)NC(=O)c1ccc2c(N3CCN(C)CC3)nc(N)nc2c1 [Example 135, (S)-Methyl 2-(2-amino-4-(4-methylpiperazin-1-yl)quinazoline-7-carboxamido)-3-(4-(isopropylcarbamoyloxy)phenyl)propanoate] | 70 |
| CN1CCN(c2cc(-c3ccc4c(c3)CN(C(=O)c3ccc(Cl)cc3)CC4)nc(N)n2)CC1 [Example 2, 4-[2-(4-Chlorobenzoyl)-1,2,3,4-tetrahydroisoquinolin-7-yl]-6-(4-methylpiperazin-1-yl)pyrimidin-2-amine] | 172 |
| COC(=O)[C@H](Cc1ccc(OC(C)C)cc1)NC(=O)c1ccc2c(N3CCN(C)CC3)nc(N)nc2c1 [Example 134, Methyl (2S)-2-({[2-amino-4-(4-methylpiperazin-1-yl)quinazolin-7-yl]carbonyl}amino)-3-(4-isopropoxyphenyl)propanoate] | 29 |
| CN1CCN(c2cc(-c3ccc4c(c3)CN(C(=O)CC3(C#N)CCC3)CC4)nc(N)n2)CC1 [Example 120, 1-{2-[7-[2-Amino-6-(4-methylpiperazin-1-yl)pyrimidin-4-yl]-3,4-dihydroisoquinolin-2(1)-yl]-2-oxoethyl}cyclobutanecarbonitrile] | 34 |
| CN1CCN(c2cc(-c3ccc4c(c3)CN(C(=O)CCc3ccccc3)CC4)nc(N)n2)CC1 [Example 101, 4-(4-Methylpiperazin-1-yl)-6-[2-(3-phenylpropanoyl)-1,2,3,4-tetrahydroisoquinolin-7-yl]pyrimidin-2-amine] | 99 |
| CN1CCN(c2nc(N)nc3cc(C(=O)NC(Cc4ccc(-c5ccccc5)s4)C(=O)N(C)C)ccc23)CC1 (centres unmarked) [Example 147, 2-Amino-N-{2-(dimethylamino)-2-oxo-1-[(5-phenyl-2-thienyl)methyl]ethyl}-4-(4-methylpiperazin-1-yl)quinazoline-7-carboxamide] | 71 |
| CN1CCN(c2cc(-c3ccc4c(c3)CN(C(=O)Nc3cccc(Cl)c3F)CC4)nc(N)n2)CC1 [Example 40, 7-[2-Amino-6-(4-methylpiperazin-1-yl)pyrimidin-4-yl]-N-(3-chloro-2-fluorophenyl)-3,4-dihydroisoquinoline-2(1H)-carboxamide] | 16 |
| CN1CCN(c2cc(-c3ccc4c(c3)CN(C(=O)Nc3ccccc3)CC4)nc(N)n2)CC1 [Example 12, 7-[2-Amino-6-(4-methylpiperazin-1-yl)pyrimidin-4-yl]-N-phenyl-3,4-dihydroisoquinoline-2(1H)-carboxamide] | 23.4 |
| CCO[C@H]1CCCC[C@H]1NC(=O)N1CCc2ccc(-c3cc(N4CCN(C)CC4)nc(N)n3)cc2C1 (relative stereo) [Example 85, 7-[2-Amino-6-(4-methylpiperazin-1-yl)pyrimidin-4-yl]-N-[(cis)-2-ethoxycyclohexyl]-3,4-dihydroisoquinoline-2(1H)-carboxamide] | 57 |
| CC(C)Cc1ccc(C(C)NC(=O)c2ccc3c(N4CCN(C)CC4)nc(N)nc3c2)cc1 (centres unmarked) [Example 28, 2-Amino-N-[1-(4-isobutylphenyl)ethyl]-4-(4-methylpiperazin-1-yl)quinazoline-7-carboxamide] | 171 |
| CN1CCN(c2cc(-c3ccc4c(c3)CN(C(=O)OC3CCN(S(=O)(=O)C5CCCC5)CC3)CC4)nc(N)n2)CC1 [Example 89, 1-(Cyclopentylsulfonyl)piperidin-4-yl 7-[2-amino-6-(4-methylpiperazin-1-yl)pyrimidin-4-yl]-3,4-dihydroisoquinoline-2(1H)-carboxylate] | 77 |
| CN1CCN(c2cc(-c3ccc4c(c3)CN(C(=O)Cc3ccccc3)CC4)nc(N)n2)CC1 [Example 6, 4-(4-Methylpiperazin-1-yl)-6-[2-(phenylacetyl)-1,2,3,4-tetrahydroisoquinolin-7-yl]pyrimidin-2-amine] | 37.8 |
| CN1CCN(c2nc(N)nc3cc(C(=O)N[C@@H](Cc4ccc(OC(=O)Nc5cccc(Cl)c5)cc4)C(=O)N(C)C)ccc23)CC1 [Example 165, 4-[(2S)-2-({[2-Amino-4-(4-methylpiperazin-1-yl)quinazolin-7-yl]carbonyl}amino)-3-(dimethylamino)-3-oxopropyl]phenyl (3-chlorophenyl)carbamate] | 16 |
| CCC(C)CC(=O)N1CCc2ccc(-c3cc(N4CCN(C)CC4)nc(N)n3)cc2C1 (centres unmarked) [Example 111, 4-[2-(3-Methylpentanoyl)-1,2,3,4-tetrahydroisoquinolin-7-yl]-6-(4-methylpiperazin-1-yl)pyrimidin-2-amine] | 9.5 |
| CN1CCN(c2cc(-c3ccc4c(c3)CN(C(=O)OC3CCN(C(=O)NC5CCCC5)CC3)CC4)nc(N)n2)CC1 [Example 70, 1-[(Cyclopentylamino)carbonyl]piperidin-4-yl 7-[2-amino-6-(4-methylpiperazin-1-yl)pyrimidin-4-yl]-3,4-dihydroisoquinoline-2(1H)-carboxylate] | 361 |
| COC(=O)c1cccc(COc2cccc(C(C)NC(=O)c3ccc4c(N5CCN(C)CC5)nc(N)nc4c3)c2)c1 (centres unmarked) [Example 200, Methyl 3-({3-[1-({[2-amino-4-(4-methylpiperazin-1-yl)quinazolin-7-yl]carbonyl}amino)ethyl]phenoxy}methyl)benzoate] | 7.1 |
| CN1CCN(c2nc(N)nc3cc(C(=O)NCc4cccc(OCc5cccc(C#N)c5)c4)ccc23)CC1 [Example 192, 2-amino-N-(3-(3-cyanobenzyloxy)benzyl)-4-(4-methylpiperazin-1-yl)quinazoline-7-carboxamide] | 6.3 |
| CN1CCN(c2nc(N)nc3cc(C(=O)N[C@@H](Cc4ccc(-c5cncc(C(F)(F)F)c5)cc4)C(=O)N(C)C)ccc23)CC1 [Example 161, 2-Amino-N-((1S)-2-(dimethylamino)-2-oxo-1-{4-[5-(trifluoromethyl)pyridin-3-yl]benzyl}ethyl)-4-(4-methylpiperazin-1-yl)quinazoline-7-carboxamide] | 31 |
| CC(NC(=O)N1CCc2ccc(-c3cc(N4CCN(C)CC4)nc(N)n3)cc2C1)c1ccn(C)n1 (centres unmarked) [Example 127, 7-[2-Amino-6-(4-methylpiperazin-1-yl)pyrimidin-4-yl]-N-[1-(1-methyl-1H-pyrazol-3-yl)ethyl]-3,4-dihydroisoquinoline-2(1H)-carboxamide] | 253 |
